Source: patent US12653796B2, “Compounds for use (in particular RIPA-56) in the prevention and/or treatment of non-alcoholic fatty liver disease” (SORBONNE UNIVERSITE, priority 2019, dated 2026)
Residues, ends and D or L forms follow the SMILES beside them. *: point of attachment. Cbz = O=C(OCc1ccccc1)*; CH2F = FC*

Assays:
RIPK1 = test: ELISA of RIPK1 released in supernatant of L929 cells exposed to TNFα; assay type: cell-based, murine; settings: 20 μM, 2 h, then TNFα (25 ng/mL) 6 h
Method: FIG. 12. […] Results are shown as mean±SEM of six replicates.
L929 cells (LGC Standards, Molsheim, France), were cultured in Dulbecco's modified Eagle's medium (DMEM) (ThermoFisher, Massachusetts, USA) supplemented with 10% fetal bovine serum (Eurobio, Courtaboeuf, France), penicillin (100 IU/ml), streptomycin (0.1 mg/ml), and L-glutamine (0.03%) (ThermoFisher). […] AML-12 (alpha mouse liver-12) hepatocytes (LGC Standards) were cultured in DMEM/F12 Medium (ThermoFisher) supplemented with 10% fetal bovine serum (Eurobio), 10 μg/ml insulin, 5.5 μg/ml transferrin, 5 ng/ml selenium and 40 ng/ml dexamethasone (Sigma, Missouri, USA). AML-12 hepatocytes were stimulated with insulin (#I0516, 10 nM; Sigma) for 15 minutes.
Protein concentrations of human RIPK1 (SEE640Hu; Could-Clone Corp., Texas, USA), human MLKL (SER645Hu; Could-Clone Corp.) and murine RIPK1 (CSB-EL019735MO; Cusabio, Texas, USA) were determined by an ELISA kit according to the manufacturer's instructions.

[1] = system: primary human hepatocytes; test: Fat depletion in primary human hepatocytes with free fatty acid-induced steatosis; assay type: cell-based; settings: 20 μM, 24 h
Method: FIG. 7. RIPA-56 treatment induces fat depletion in primary human hepatocytes. Primary human hepatocytes were isolated from steatotic human livers of patients with NAFLD (n=5) (A-C) or from non-steatotic human livers and incubated with free fatty acids to induce steatosis or without (W/O) (n=5) (D-G), and treated with RIPA-56 (20 μM) or DMSO (vehicle) for 24 h. (A, D) Representative Oil Red-O and DAPI images; (B, E) Quantification of Oil Red-O staining normalized for the number of DAPI-stained nuclei; (C, F) Quantification of intracellular triglycerides normalized to protein content; (G) mRNA levels of CPT1A, MTTP and APOB100 were assessed by RT-qPCR, and shown relative to DMSO-treated hepatocytes. Results are shown as mean±SEM; n.s., not significant; *p<0.05; **p<0.01; scale bars, 100 μm. These findings are representative of five independent cell preparations.
FIG. 9. MLKL controls intrahepatic triglyceride content in hepatocytes. (A-D) Primary human hepatocytes were isolated from non-steatotic human livers and incubated with free fatty acids to induce steatosis, or without (W/O), and treated with necrosulfonamide (NSA) (20 μM) or DMSO (vehicle) for 24 h. (A) Representative Oil Red-O and DAPI images; (B) Quantification of Oil Red-O staining normalized for the number of DAPI-stained nuclei; (C) Quantification of intracellular triglycerides normalized to protein content. (D) mRNA levels of CPT1A, MTTP and APOB100 were assessed by RT-qPCR and shown relative to DMSO-treated hepatocytes; (E-H) AML-12 cells were knocked-out (KO) for MLKL and compared with control (CTL) cells, which underwent a similar CRISPR-Cas9 selection as KO cells; (E) Whole-cell lysates were extracted from CTL and MLKL-KO AML-12 cells and analyzed by Western blot using antibodies against MLKL, Tubulin and GAPDH; (F) Representative Oil Red-O and DAPI images; (G) Oil Red-O staining and (H) triglycerides quantification in fat-loaded cell lines. Results are shown as mean±SEM; n.s., not significant; *p<0.05; **p<0.01; ***p<0.001; scale bars, 100 μm. These experiments are representative of five independent cell preparations.
The liver fragment was initially perfused with a prewarmed (37° C.) calcium-free buffer supplemented with 5 mmol/L ethylene glycol tetra-acetic acid (Sigma) followed by perfusion with a prewarmed (37° C.) buffer containing 6 mmol/L calcium (CaCl2) and collagenase 0.05% ([…]) (Sigma). The liver fragment was then gently shaken to disperse liver cells in Hepatocyte Wash Medium (Life Technologies, Villebon-sur-Yvette, France). The resulting cell suspension was filtered through a gauze-lined funnel. Cells were then centrifuged at low speed. The supernatant, containing damaged or dead hepatocytes, non-parenchymal cells and debris were removed and pelleted hepatocytes were re-suspended in Hepatocyte Wash Medium. The count of viable cells was determined using trypan blue exclusion. Freshly isolated normal (steatosis <5%) or steatotic (>10%) hepatocytes were resuspended in Williams medium E (Life technologies) containing 10% fetal calf serum (Eurobio), penicillin (200 U/mL)-streptomycin (200 μg/mL), Fungizone (2.5 μg/mL) and insulin (0.1 U/mL) (Life Technologies). The cells were seeded in 12-, 24- and 96-well plates pre-coated with type I collagen at a density of 0.78×10^6, 0.4×10^6 and 0.5×10^5 viable cells/well, respectively, and incubated overnight at 37° C. in a 5% CO2 atmosphere. The medium was replaced with fresh complete hepatocyte medium supplemented with 1 μmol/L hydrocortisone hemisuccinate (Laboratoires SERB, Paris, France) and hepatocytes were maintained in this medium. To induce steatosis in normal hepatocytes, PHH were incubated with free fatty acid (FFA) mixtures of oleic acid and palmitic acid in a molar ratio 2:1 (500:250 μmol/L), respectively, and with 1% fatty-acid-free BSA for 48 hours.
Total RNA was purified from liver tissue using TRIzol reagent (ThermoFisher) and a RNeasy Mini kit (Qiagen, Courtaboeuf, France). […]

Compound | RIPK1 in the supernatant (RIPK1) | intracellular lipid droplets (Oil Red-O) ([1]; FFA-induced steatosis) | intracellular triglyceride content ([1]; FFA-induced steatosis) | CPT1A expression (mRNA) ([1]; RT-qPCR)
necrostatin-1 [Nec-1] | undetectable |  |  | 
COC(=O)C[C@H](NC(=O)[C@H](C)NC(=O)[C@@H](NC(=O)OCc1ccccc1)C(C)C)C(=O)CF [Zvad] (Cbz-Val-Ala-Asp(OMe)-CH2F) | released |  |  | 
COc1nccnc1NS(=O)(=O)c1ccc(NC(=O)/C=C/c2ccc([N+](=O)[O-])s2)cc1 [necrosulfonamide, reference compound] |  | significantly decreased | significantly decreased | upregulated
